From ChEMBL document CHEMBL3352542, “Synthesis, biological evaluation and molecular modeling study of 2-(1,3,4-thiadiazolyl-thio and 4-methyl-thiazolyl-thio)-quinazolin-4-ones as a new class of DHFR inhibitors” (Bioorg Med Chem Lett, 2014)
Active and inactive are the calls of the source.

Legend:
SN12C = assay: Growth inhibition of human SN12C cells at 10 uM after 48 hrs; assay type: functional
Bacillus subtilis [1] = assay: Antimicrobial activity against Bacillus subtilis assessed as inhibition zone at 200 ug/disk after 24 hrs by disc-diffusion method; assay type: functional; settings: read-out: IZ
MOLT-4 = assay: Growth inhibition of human MOLT4 cells at 10 uM after 48 hrs; assay type: functional
COLO 205 = assay: Growth inhibition of human COLO205 cells at 10 uM after 48 hrs; assay type: functional
OVCAR-8 = assay: Growth inhibition of human OVCAR8 cells at 10 uM after 48 hrs; assay type: functional
UACC-62 = assay: Growth inhibition of human UACC62 cells at 10 uM after 48 hrs; assay type: functional
MDA-MB-468 = assay: Growth inhibition of human MDA-MB-468 cells at 10 uM after 48 hrs; assay type: functional
SK-MEL-5 = assay: Growth inhibition of human SK-MEL-5 cells at 10 uM after 48 hrs; assay type: functional
CAKI-1 = assay: Growth inhibition of human CAKI-1 cells at 10 uM after 48 hrs; assay type: functional
NCI/ADR-RES = assay: Growth inhibition of human NCI-ADR-RES cells at 10 uM after 48 hrs; assay type: functional
SF-539 = assay: Growth inhibition of human SF539 cells at 10 uM after 48 hrs; assay type: functional
A498 = assay: Growth inhibition of human A498 cells at 10 uM after 48 hrs; assay type: functional
UACC-257 = assay: Growth inhibition of human UACC257 cells at 10 uM after 48 hrs; assay type: functional
LOX IMVI = assay: Growth inhibition of human LOXIMVI cells at 10 uM after 48 hrs; assay type: functional
MDA-MB-435 = assay: Growth inhibition of human MDA-MB-435 cells at 10 uM after 48 hrs; assay type: functional
HOP-92 = assay: Growth inhibition of human HOP92 cells at 10 uM after 48 hrs; assay type: functional
HCT-116 = assay: Growth inhibition of human HCT116 cells at 10 uM after 48 hrs; assay type: functional
NCI-H460 = assay: Growth inhibition of human NCI-H460 cells at 10 uM after 48 hrs; assay type: functional
OVCAR-5 = assay: Growth inhibition of human OVCAR5 cells at 10 uM after 48 hrs; assay type: functional
KM12 = assay: Growth inhibition of human KM12 cells at 10 uM after 48 hrs; assay type: functional
Candida albicans = assay: Antimicrobial activity against Candida albicans assessed as inhibition zone at 200 ug/disk after 24 hrs by disc-diffusion method; assay type: functional; settings: read-out: IZ
OVCAR-4 = assay: Growth inhibition of human OVCAR4 cells at 10 uM after 48 hrs; assay type: functional
Staphylococcus aureus [2] = assay: Antimicrobial activity against Staphylococcus aureus assessed as inhibition of visible growth after 24 hrs by disc-diffusion method; assay type: functional, organism-based
NCI-H522 = assay: Growth inhibition of human NCI-H522 cells at 10 uM after 48 hrs; assay type: functional
Pseudomonas aeruginosa = assay: Antimicrobial activity against Pseudomonas aeruginosa assessed as inhibition zone at 200 ug/disk after 24 hrs by disc-diffusion method; assay type: functional; settings: read-out: IZ
U-251 = assay: Growth inhibition of human U251 cells at 10 uM after 48 hrs; assay type: functional
MCF7 = assay: Growth inhibition of human MCF7 cells at 10 uM after 48 hrs; assay type: functional
MDA-MB-231 = assay: Growth inhibition of human MDA-MB-231 cells at 10 uM after 48 hrs; assay type: functional
SNB-19 = assay: Growth inhibition of human SNB19 cells at 10 uM after 48 hrs; assay type: functional
786-0 = assay: Growth inhibition of human 786-0 cells at 10 uM after 48 hrs; assay type: functional
A549 = assay: Growth inhibition of human A549 cells at 10 uM after 48 hrs; assay type: functional
Hs-578T = assay: Growth inhibition of human Hs 578T cells at 10 uM after 48 hrs; assay type: functional
HCC 2998 = assay: Growth inhibition of human HCC2998 cells at 10 uM after 48 hrs; assay type: functional
SNB-75 = assay: Growth inhibition of human SNB75 cells at 10 uM after 48 hrs; assay type: functional
BT-549 = assay: Growth inhibition of human BT549 cells at 10 uM after 48 hrs; assay type: functional
Dihydrofolate reductase = biological target: T1, Dihydrofolate reductase (Bos taurus, UniProt P00376); assay: Inhibition of bovine liver DHFR
T1 sequence (P00376 whole entry): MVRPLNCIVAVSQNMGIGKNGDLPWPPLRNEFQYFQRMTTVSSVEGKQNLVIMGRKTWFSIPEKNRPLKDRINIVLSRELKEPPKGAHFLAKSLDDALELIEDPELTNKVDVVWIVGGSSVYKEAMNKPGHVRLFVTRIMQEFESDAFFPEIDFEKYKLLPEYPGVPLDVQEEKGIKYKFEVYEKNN

OVCAR-3 = assay: Growth inhibition of human OVCAR3 cells at 10 uM after 48 hrs; assay type: functional
HCT-15 = assay: Growth inhibition of human HCT15 cells at 10 uM after 48 hrs; assay type: functional
K562 = assay: Growth inhibition of human K562 cells at 10 uM after 48 hrs; assay type: functional
Bacillus subtilis [3] = assay: Antimicrobial activity against Bacillus subtilis assessed as inhibition of visible growth after 24 hrs by disc-diffusion method; assay type: functional, organism-based
M14 = assay: Growth inhibition of human M14 cells at 10 uM after 48 hrs; assay type: functional
T47D = assay: Growth inhibition of human T47D cells at 10 uM after 48 hrs; assay type: functional
HT-29 = assay: Growth inhibition of human HT-29 cells at 10 uM after 48 hrs; assay type: functional
UO-31 = assay: Growth inhibition of human UO31 cells at 10 uM after 48 hrs; assay type: functional
PC-3 = assay: Growth inhibition of human PC3 cells at 10 uM after 48 hrs; assay type: functional
SF-268 = assay: Growth inhibition of human SF268 cells at 10 uM after 48 hrs; assay type: functional
NCI-H226 = assay: Growth inhibition of human NCI-H226 cells at 10 uM after 48 hrs; assay type: functional
NCI-H23 = assay: Growth inhibition of human NCI-H23 cells at 10 uM after 48 hrs; assay type: functional
ACHN = assay: Growth inhibition of human ACHN cells at 10 uM after 48 hrs; assay type: functional
HL-60(TB) = assay: Growth inhibition of human HL-60(TB) cells at 10 uM after 48 hrs; assay type: functional
Escherichia coli = assay: Antimicrobial activity against Escherichia coli assessed as inhibition zone at 200 ug/disk after 24 hrs by disc-diffusion method; assay type: functional; settings: read-out: IZ
TK-10 = assay: Growth inhibition of human TK10 cells at 10 uM after 48 hrs; assay type: functional
SW-620 = assay: Growth inhibition of human SW620 cells at 10 uM after 48 hrs; assay type: functional
Staphylococcus aureus [4] = assay: Antimicrobial activity against Staphylococcus aureus assessed as inhibition zone at 200 ug/disk after 24 hrs by disc-diffusion method; assay type: functional; settings: read-out: IZ
SF-295 = assay: Growth inhibition of human SF295 cells at 10 uM after 48 hrs; assay type: functional
RXF 393 = assay: Growth inhibition of human RXF393 cells at 10 uM after 48 hrs; assay type: functional
Malme-3M = assay: Growth inhibition of human MALME-3M cells at 10 uM after 48 hrs; assay type: functional
SR = assay: Growth inhibition of human SR cells at 10 uM after 48 hrs; assay type: functional
CCRF-CEM = assay: Growth inhibition of human CCRF-CEM cells at 10 uM after 48 hrs; assay type: functional
RPMI-8226 = assay: Growth inhibition of human RPMI8226 cells at 10 uM after 48 hrs; assay type: functional

Cc1ccc2nc(Sc3sc(N)nc3C)n(-c3ccc(Oc4ccccc4)cc3)c(=O)c2c1
26 mm: zone of inhibition at 200 µg/disc (Staphylococcus aureus [4])
inactive: growth inhibition (GI) (SN12C) | growth inhibition (GI) (MOLT-4) | growth inhibition (GI) (COLO 205) | growth inhibition (GI) (OVCAR-8) | growth inhibition (GI) (UACC-62) | growth inhibition (GI) (MDA-MB-468) | growth inhibition (GI) (SK-MEL-5) | growth inhibition (GI) (CAKI-1) | growth inhibition (GI) (NCI/ADR-RES) | growth inhibition (GI) (SF-539) | growth inhibition (GI) (A498) | growth inhibition (GI) (UACC-257) | growth inhibition (GI) (LOX IMVI) | growth inhibition (GI) (MDA-MB-435) | growth inhibition (GI) (HOP-92) | growth inhibition (GI) (HCT-116) | growth inhibition (GI) (NCI-H460) | growth inhibition (GI) (OVCAR-5) | growth inhibition (GI) (KM12) | growth inhibition (GI) (OVCAR-4) | growth inhibition (GI) (NCI-H522) | growth inhibition (GI) (U-251) | growth inhibition (GI) (MCF7) | growth inhibition (GI) (MDA-MB-231) | growth inhibition (GI) (SNB-19) | growth inhibition (GI) (786-0) | growth inhibition (GI) (A549) | growth inhibition (GI) (Hs-578T) | growth inhibition (GI) (HCC 2998) | growth inhibition (GI) (SNB-75) | growth inhibition (GI) (BT-549) | growth inhibition (GI) (OVCAR-3) | growth inhibition (GI) (HCT-15) | growth inhibition (GI) (K562) | growth inhibition (GI) (M14) | growth inhibition (GI) (T47D) | growth inhibition (GI) (HT-29) | growth inhibition (GI) (UO-31) | growth inhibition (GI) (PC-3) | growth inhibition (GI) (SF-268) | growth inhibition (GI) (NCI-H226) | growth inhibition (GI) (NCI-H23) | growth inhibition (GI) (ACHN) | growth inhibition (GI) (HL-60(TB)) | growth inhibition (GI) (TK-10) | growth inhibition (GI) (SW-620) | growth inhibition (GI) (SF-295) | growth inhibition (GI) (RXF 393) | growth inhibition (GI) (Malme-3M) | growth inhibition (GI) (SR) | growth inhibition (GI) (CCRF-CEM) | growth inhibition (GI) (RPMI-8226)
2 µM: IC50 (Dihydrofolate reductase)
8 mm: zone of inhibition at 200 µg/disc (Candida albicans) | zone of inhibition at 200 µg/disc (Pseudomonas aeruginosa)
active: Activity (Staphylococcus aureus [2]) | Activity (Bacillus subtilis [3])
22 mm: zone of inhibition at 200 µg/disc (Bacillus subtilis [1])
14 mm: zone of inhibition at 200 µg/disc (Escherichia coli)

COc1cc2nc(Sc3sc(N)nc3C)n(Cc3ccccc3)c(=O)c2cc1OC
active: Activity (Staphylococcus aureus [2]) | Activity (Bacillus subtilis [3])
6 µM: IC50 (Dihydrofolate reductase)
inactive: growth inhibition (GI) (SN12C) | growth inhibition (GI) (MOLT-4) | growth inhibition (GI) (COLO 205) | growth inhibition (GI) (OVCAR-8) | growth inhibition (GI) (UACC-62) | growth inhibition (GI) (MDA-MB-468) | growth inhibition (GI) (SK-MEL-5) | growth inhibition (GI) (CAKI-1) | growth inhibition (GI) (NCI/ADR-RES) | growth inhibition (GI) (SF-539) | growth inhibition (GI) (A498) | growth inhibition (GI) (UACC-257) | growth inhibition (GI) (LOX IMVI) | growth inhibition (GI) (MDA-MB-435) | growth inhibition (GI) (HOP-92) | growth inhibition (GI) (HCT-116) | growth inhibition (GI) (NCI-H460) | growth inhibition (GI) (OVCAR-5) | growth inhibition (GI) (KM12) | growth inhibition (GI) (OVCAR-4) | growth inhibition (GI) (NCI-H522) | growth inhibition (GI) (U-251) | growth inhibition (GI) (MCF7) | growth inhibition (GI) (MDA-MB-231) | growth inhibition (GI) (SNB-19) | growth inhibition (GI) (786-0) | growth inhibition (GI) (A549) | growth inhibition (GI) (Hs-578T) | growth inhibition (GI) (HCC 2998) | growth inhibition (GI) (SNB-75) | growth inhibition (GI) (BT-549) | growth inhibition (GI) (OVCAR-3) | growth inhibition (GI) (HCT-15) | growth inhibition (GI) (K562) | growth inhibition (GI) (M14) | growth inhibition (GI) (T47D) | growth inhibition (GI) (HT-29) | growth inhibition (GI) (UO-31) | growth inhibition (GI) (PC-3) | growth inhibition (GI) (SF-268) | growth inhibition (GI) (NCI-H226) | growth inhibition (GI) (NCI-H23) | growth inhibition (GI) (ACHN) | growth inhibition (GI) (HL-60(TB)) | growth inhibition (GI) (TK-10) | growth inhibition (GI) (SW-620) | growth inhibition (GI) (SF-295) | growth inhibition (GI) (RXF 393) | growth inhibition (GI) (Malme-3M) | growth inhibition (GI) (SR) | growth inhibition (GI) (CCRF-CEM) | growth inhibition (GI) (RPMI-8226)
8 mm: zone of inhibition at 200 µg/disc (Candida albicans) | zone of inhibition at 200 µg/disc (Pseudomonas aeruginosa) | zone of inhibition at 200 µg/disc (Escherichia coli)
20 mm: zone of inhibition at 200 µg/disc (Staphylococcus aureus [4])
24 mm: zone of inhibition at 200 µg/disc (Bacillus subtilis [1])
